Results from patent US11470844B2, “Vespidae wasp repellent” (KINP CO., LTD, priority 2015, dated 2022).

How the values were obtained:
Assay type in all cases: in vivo
[1] = test system: Vespa simillima xanthoptera; assay: Grape juice attraction trap set outside
Procedure: (§1) The inventors conducted the experiment at four places in Kagawa Prefecture Kinbuchi Forest Park. The experiment was conducted totally 4 times from Oct. 11 to Nov. 4, 2013, from Nov. 4 to Dec. 7, 2013, from Oct. 1 to Oct. 31, 2014, and from Oct. 31 to Dec. 9, 2014.
(§2) First, four 2 cm square holes were opened on the side of a 2 L capacity PET bottle, and 500 mL of grape juice was added thereto to prepare a control attraction trap to kill a Vespidae worker. As Test liquid example, 25 mL, 5 mL or 1 mL of 2-phenylethanol was added to the grape juice of the traps. […] Since all of the test sites were low mountainous and sloping areas and had many trees, each trap had to be suspended from the branch of live trees. As a result, the horizontal distances between a pair of control example trap and test liquid example trap could not be adjusted to the same, and the distance was from 1 m to 8.5 m. There were not only Vespidae worker but also male Vespidae among the killed Vespidae wasps in the attraction traps; however, the results of the control example and test liquid example were compared on the basis of the number of the killed Vespidae worker, since a Vespidae worker causes a stabbing accident and plays an important role in building a nest. In Table 8, “*” indicates the case where there is a significant difference at p<0.01 in the χ^2 test to which the correction of Yates is applied, and “**” indicates the case where there is a significant difference at p<0.001 in the same test. The result of the first experiment in 2013 is shown in Table 9, the result of the second experiment in 2013 is shown in Table 10, the result of the first experiment using 1% 2-phenylethanol in 2014 is shown in Table 11, the result of the second experiment in 2014 is shown in Table 12, the result of the first experiment using 0.1% 2-phenylethanol in 2014 is shown in Table 13, and the result of the second experiment in 2014 is shown in Table 14. In Tables 9 to 14, “*” indicates the case where there is a significant difference at p<0.05 in the t-test, “**” indicates the case where there is a significant difference at p<0.01 in the same test, and “***” indicates the case where there is a significant difference at p<0.001 in the same test.
(§3) In the first experiment and second experiment, the trap prepared by adding 25 mL of 2-phenylethanol to 500 mL of grape juice was used as the test liquid example of 5% 2-phenylethanol.
(§4) In the first experiment and second experiment, 10 traps prepared by adding 5 mL of 2-phenylethanol to 500 mL of grape juice and 10 traps prepared by adding 0.5 mL of 2-phenylethanol to 500 mL of grape juice were used respectively as the 2 kinds of test liquid examples of 1% 2-phenylethanol and 0.1% 2-phenylethanol to conduct the experiment.

Vespa analis = assay: Grape juice attraction trap set outside
Procedure: as §1, §2, §3, §4

[2] = test system: Vespa crabro flavofasciata; assay: Grape juice attraction trap set outside
Procedure: as §1, §2, §3, §4

[3] = test system: Vespidae worker, all species; assay: Grape juice attraction trap set outside
Procedure: as §1, §2, §3, §4

Vespa ducalis = assay: Grape juice attraction trap set outside
Procedure: as §1, §2, §3, §4

[4] = test system: Polistes jokahamae jokahamae Radoszkowski worker group; assay: Spray on worker group on nest surface
Procedure: The experiment involving a worker group of Polistes jokahamae jokahamae Radoszkowski on the exterior wall of a nest found in the campus of Faculty of Agriculture, Kochi University, located on 200 Otsu, Monobe, Nankoku City, Kochi Prefecture, was conducted on Jul. 13, 2015, and the experiment involving a worker of P. jokahamae jokahamae Radoszkowski which collected sap bled from sucking mark by adult Cryptotympana facialis of Zelkova tree stem planted in a private house in Fuseishi-cho, Takamatsu City, Kagawa Prefecture was conducted on July 19 to 22, 2015. In addition, the experiment involving a worker group of P. chinensis antennalis Pe'rez on the exterior wall of a nest found on a branch of a cheesewood planted at a bank of Noda pond located at Fuseishi-cho, Takamatsu City, Kagawa Prefecture was conducted on Jul. 30, 2015.
The experiment was conducted in accordance with the above-described Example 1(1) involving a Vespa mandarinia worker, distilled water as a control example spray and benzyl alcohol as a test liquid example spray were sequentially sprayed on a test object group or a test object worker by using a sprayer, and the behavior from immediately after spraying up to 1 minute later was respectively recorded.

[5] = 0.1% 2-phenylethanol trap, first experiment 2014, 10 traps
[6] = 0.1% 2-phenylethanol trap, second experiment 2014, 10 traps
[7] = 1% 2-phenylethanol trap, first experiment 2014, 10 traps
[8] = 1% 2-phenylethanol trap, second experiment 2014, 10 traps
[9] = 5% 2-phenylethanol trap, first experiment 2013, 18 traps
[10] = 5% 2-phenylethanol trap, second experiment 2013, 18 traps

In the case of `OCCc1ccccc1` [2-Phenylethanol, 2-phenylethanol], the “Total number of killed worker (Average ± SD), Vespa simillima xanthoptera” value [1, 5] is reported as “(0.10 ± 0.32)”, the “Total number of killed worker, Vespa simillima xanthoptera” value [1, 5] is reported as 1 and the “Total number of killed worker (Average ± SD), Vespa simillima xanthoptera” value [1, 6] is reported as “(0.00 ± 0.00)”. For the same molecule, the “Total number of killed worker, Vespa simillima xanthoptera” value [1, 6] was 0, the “Total number of killed worker (Average ± SD), Vespa simillima xanthoptera” value [1, 7] was “(0.00 ± 0.00)” and the “Total number of killed worker, Vespa simillima xanthoptera” value [1, 7] was 0. The “Total number of killed worker (Average ± SD), Vespa simillima xanthoptera” value [1, 8] was “(0.00 ± 0.00)”, the “Total number of killed worker, Vespa simillima xanthoptera” value [1, 8] was 0 and the “Total number of killed worker (Average ± SD), Vespa simillima xanthoptera” value [1, 9] was “(0.00 ± 0.00)”. The “Total number of killed worker, Vespa simillima xanthoptera” value [1, 9] was 0, the “Total number of killed worker (Average ± SD), Vespa simillima xanthoptera” value [1, 10] was “(0.00 ± 0.00)” and the “Total number of killed worker, Vespa simillima xanthoptera” value [1, 10] was 0. The “Total number of killed worker (Average ± SD), Vespa analis” value (Vespa analis; [5]) was “(0.60 ± 0.70)”, the “Total number of killed worker, Vespa analis” value (Vespa analis; [5]) was 6 and the “Total number of killed worker (Average ± SD), Vespa analis” value (Vespa analis; [6]) was “(0.00 ± 0.00)”. The “Total number of killed worker, Vespa analis” value (Vespa analis; [6]) was 0, the “Total number of killed worker (Average ± SD), Vespa analis” value (Vespa analis; [7]) was “(0.00 ± 0.00)” and the “Total number of killed worker, Vespa analis” value (Vespa analis; [7]) was 0. The “Total number of killed worker (Average ± SD), Vespa analis” value (Vespa analis; [8]) was “(0.00 ± 0.00)”, the “Total number of killed worker, Vespa analis” value (Vespa analis; [8]) was 0 and the “Total number of killed worker (Average ± SD), Vespa analis” value (Vespa analis; [9]) was “(0.00 ± 0.00)”. For the same molecule, the “Total number of killed worker, Vespa analis” value (Vespa analis; [9]) was 0, the “Total number of killed worker (Average ± SD), Vespa analis” value (Vespa analis; [10]) was “(0.00 ± 0.00)” and the “Total number of killed worker, Vespa analis” value (Vespa analis; [10]) was 0. The “Total number of killed worker (Average ± SD), Vespa crabro flavofasciata” value [2, 5] was “(1.50 ± 1.27)”, the “Total number of killed worker, Vespa crabro flavofasciata” value [2, 5] was 15 and the “Total number of killed worker (Average ± SD), Vespa crabro flavofasciata” value [2, 6] was “(0.00 ± 0.00)”. For the same molecule, the “Total number of killed worker, Vespa crabro flavofasciata” value [2, 6] was 0, the “Total number of killed worker (Average ± SD), Vespa crabro flavofasciata” value [2, 7] was “(0.00 ± 0.00)” and the “Total number of killed worker, Vespa crabro flavofasciata” value [2, 7] was 0. For the same molecule, the “Total number of killed worker (Average ± SD), Vespa crabro flavofasciata” value [2, 8] was “(0.00 ± 0.00)”, the “Total number of killed worker, Vespa crabro flavofasciata” value [2, 8] was 0 and the “Total number of killed worker (Average ± SD), Vespa crabro flavofasciata” value [2, 9] was “(0.00 ± 0.00)”. The “Total number of killed worker, Vespa crabro flavofasciata” value [2, 9] was 0, the “Total number of killed worker (Average ± SD), Vespa crabro flavofasciata” value [2, 10] was “(0.00 ± 0.00)” and the “Total number of killed worker, Vespa crabro flavofasciata” value [2, 10] was 0. The “Number of effective trap” value ([3]; 0.1% 2-phenylethanol in grape juice, 2014, 1st experiment, 10 installed traps) was 10, the “Number of effective trap” value ([3]; 0.1% 2-phenylethanol in grape juice, 2014, 2nd experiment, 10 installed traps) was 1 and the “Total number of killed worker (Average ± SD), All species” value [3, 5] was “(6.20 ± 6.27)”. For the same molecule, the “Total number of killed worker, All species” value [3, 5] was 62, the “Total number of killed worker (Average ± SD), All species” value [3, 6] was “(0.30 ± 0.95)” and the “Total number of killed worker, All species” value [3, 6] was 3. For the same molecule, the “Number of effective trap” value ([3]; 1% 2-phenylethanol in grape juice, 2014, 1st experiment, 10 installed traps) was 0, the “Number of effective trap” value ([3]; 1% 2-phenylethanol in grape juice, 2014, 2nd experiment, 10 installed traps) was 0 and the “Total number of killed worker (Average ± SD), All species” value [3, 7] was “(0.00 ± 0.00)”. The “Total number of killed worker, All species” value [3, 7] was 0, the “Total number of killed worker (Average ± SD), All species” value [3, 8] was “(0.00 ± 0.00)” and the “Total number of killed worker, All species” value [3, 8] was 0. The “Number of effective trap” value ([3]; 5% 2-phenylethanol in grape juice, 2013, 1st experiment, 18 installed traps) was 0, the “Number of effective trap” value ([3]; 5% 2-phenylethanol in grape juice, 2013, 2nd experiment, 18 installed traps) was 0 and the “Total number of killed worker (Average ± SD), All species” value [3, 9] was “(0.00 ± 0.00)”. For the same molecule, the “Total number of killed worker, All species” value [3, 9] was 0, the “Total number of killed worker (Average ± SD), All species” value [3, 10] was “(0.00 ± 0.00)” and the “Total number of killed worker, All species” value [3, 10] was 0. For the same molecule, the “time for which 2-phenylethanol contained in grape juice maintained its effect” value ([3]; 5% and 1% 2-phenylethanol traps) was “at least about one month”, the “Total number of killed worker (Average ± SD), Vespa ducalis” value (Vespa ducalis; [5]) was “(0.40 ± 0.70)” and the “Total number of killed worker, Vespa ducalis” value (Vespa ducalis; [5]) was 4. The “Total number of killed worker (Average ± SD), Vespa ducalis” value (Vespa ducalis; [6]) was “(0.00 ± 0.00)”, the “Total number of killed worker, Vespa ducalis” value (Vespa ducalis; [6]) was 0 and the “Total number of killed worker (Average ± SD), Vespa ducalis” value (Vespa ducalis; [7]) was “(0.00 ± 0.00)”. The “Total number of killed worker, Vespa ducalis” value (Vespa ducalis; [7]) was 0, the “Total number of killed worker (Average ± SD), Vespa ducalis” value (Vespa ducalis; [8]) was “(0.00 ± 0.00)” and the “Total number of killed worker, Vespa ducalis” value (Vespa ducalis; [8]) was 0. For the same molecule, the “Total number of killed worker (Average ± SD), Vespa ducalis” value (Vespa ducalis; [9]) was “(0.00 ± 0.00)”, the “Total number of killed worker, Vespa ducalis” value (Vespa ducalis; [9]) was 0 and the “Total number of killed worker (Average ± SD), Vespa ducalis” value (Vespa ducalis; [10]) was “(0.00 ± 0.00)”. For the same molecule, the “Total number of killed worker, Vespa ducalis” value (Vespa ducalis; [10]) was 0.

For `OCc1ccccc1` [Benzyl alcohol, benzyl alcohol], the “Number of P. jokahamae jokahamae Radoszkowski on nest surface” value ([4]; 10:02, 1 minute after spraying benzyl alcohol once, 11 workers before) was 0 and the “time within which all workers flew away from the nest after spraying” value ([4]; group of 11 workers) was ≤ 10 s.
